Experimental data published in patent publication US10266526B2, “Substituted 1,2,3-triazoles as SMYD inhibitors for treating cancer” (EPIZYME, INC., priority 2014, dated 2019).

Molecular target: SMYD3 (Homo sapiens (Human), UniProt Q9H7B4)
Experiment: SMYD3 biochemical assay (SMYD3 enzyme assay on MEKK2 protein substrate, 3H-SAM scintillation proximity assay)
Conditions: Table 1A; average of n = 1 to n = 50; read-out: SMYD3 Biochem IC50
Text: S-adenosylmethionine (SAM), S-adenosylhomocysteine (SAH), Tris, Tween20, dimethylsulfoxide (DMSO), bovine skin gelatin (BSG), and Tris(2-carboxyethyl)phosphine hydrochloride solution (TCEP) were purchased from Sigma-Aldrich at the highest level of purity possible. ^3H-SAM was purchase from American Radiolabeled Chemicals with a specific activity of 80 Ci/mmol. 384-well opaque white OptiPlates and SPA beads (Perkin Elmer, catalog # RPNQ0013) were purchased from PerkinElmer.
N-terminally GST-tagged MEKK2 (MAP3K2) protein corresponding to reference sequence AAF63496.3 was purchased from Life Technologies (catalog # PV4010). This protein was expressed in High Five insect cells and purified to >85% purity. Protein identity was confirmed by MS/MS analysis after proteolytic digestion. The protein sequence used was:
Full-length human SMYD3 isoform 1 (BAB86333) was inserted into a modified pET21b plasmid containing a His6 tag and TEV and SUMO cleavage sites.
E. coli (BL21 codonplus RIL strain, Stratagene) were transformed with plasmid pEPZ553 by mixing competent cells and plasmid DNA and incubating on ice for 30 minutes followed by heat shock at 42° C. for 1 minute and cooling on ice for 2 minutes. Transformed cells were grown and selected on LB agar with 100 μg/mL ampicillin and 17 μg/mL chloramphenicol at 37° C. overnight. A single clone was used to inoculate 200 mL of LB medium with 100 μg/mL ampicillin and 17 μg/mL chloramphenicol and incubated at 37° C. on an orbital shaker at 180 rpm. Once in log growth, the culture was diluted 1:100 into 2 L of LB medium and grown until OD600 was about 0.3 after which the culture was incubated at 15° C. and 160 rpm. Once OD600 reached about 0.4, IPTG was added to a final concentration of 0.1 mM and the cells were grown overnight at 15° C. and 160 rpm. Cells were harvested by centrifugation at 8000 rpm, for 4 minutes at 4° C. and stored at −80° C. for purification.
The column was washed with Buffer B (Buffer A plus 20 mM imidazole) and His-tagged SMYD3 was eluted with Buffer C (Buffer A plus 300 mM imidazole). The His tag, TEV and SUMO cleavage sites were removed generating native SMYD3 by addition of ULP1 protein at a ratio of 1:200 (ULP1:SMYD3). Imidazole was removed by dialysis overnight in Buffer A. The dialyzed solution was applied to a second Nickel column and the native SMYD3 protein was collected from the column flow-through. The flow-through was dialyzed in Buffer D (25 mM Tris, 5% glycerol, 5 mM β-mercaptoethanol, 50 mM NaCl, pH7.8) and ULP1 was removed using a Q sepharose fast flow column.
General Procedure for SMYD3 Enzyme Assays on MEKK2 Protein Substrate
The assays were all performed in a buffer consisting of 25 mM Tris-Cl pH 8.0, 1 mM TCEP, 0.005% BSG, and 0.005% Tween 20, prepared on the day of use. […] DMSO (1 ul) was added to Columns 11, 12, 23, 24, rows A-H for the maximum signal control and 1 ul of SAH, a known product and inhibitor of SMYD3, was added to columns 11, 12, 23, 24, rows I-P for the minimum signal control. A cocktail (40 ul) containing the SMYD3 enzyme was added by Multidrop Combi (Thermo-Fisher). The compounds were allowed to incubate with SMYD3 for 30 min at room temperature, then a cocktail (10 ul) containing SAM and MEKK2 was added to initiate the reaction (final volume=51 ul). […] The assays were stopped by the addition of non-radiolabeled SAM (10 ul) to a final concentration of 100 uM, which dilutes the ^3H-SAM to a level where its incorporation into MEKK2 is no longer detectable. Radiolabeled MEKK2 was detected using a scintillation proximity assay (SPA). 10 uL of a 10 mg/mL solution of SPA beads in 0.5 M citric acid was added and the plates centrifuged at 600 rpm for 1 min to precipitate the radiolabeled MEKK2 onto the SPA beads.

Chain of SMYD3 (Q9H7B4 whole entry): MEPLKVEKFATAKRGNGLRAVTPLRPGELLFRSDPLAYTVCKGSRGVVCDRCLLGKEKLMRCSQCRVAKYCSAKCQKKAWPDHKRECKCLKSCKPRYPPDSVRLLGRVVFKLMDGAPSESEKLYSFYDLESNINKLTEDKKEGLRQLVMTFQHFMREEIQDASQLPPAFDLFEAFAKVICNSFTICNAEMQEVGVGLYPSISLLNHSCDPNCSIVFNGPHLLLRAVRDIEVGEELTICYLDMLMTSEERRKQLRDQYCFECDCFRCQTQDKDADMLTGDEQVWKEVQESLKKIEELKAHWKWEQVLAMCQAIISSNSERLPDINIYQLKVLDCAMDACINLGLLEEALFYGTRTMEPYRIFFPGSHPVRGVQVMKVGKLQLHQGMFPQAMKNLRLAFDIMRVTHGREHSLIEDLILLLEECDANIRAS

Structure (SMILES)	IC50 [µM]
NCCC(=O)N[C@H]1CC[C@H](NC(=O)c2nnc[nH]2)CC1 [compound 525, N-((1r,4r)-4-(3-aminopropanamido)cyclohexyl)-4H-1,2,4-triazole-3-carboxamide]	> 50
CC(NC(=O)c1cn(CC(N)=O)nn1)C1CCN(C(=O)[C@H](C)N)CC1 (stereo partly drawn) [compound 534, N-(1-(1-(L-alanyl)piperidin-4-yl)ethyl)-1-(2-amino-2-oxoethyl)-1H-1,2,3-triazole-4-carboxamide]	> 50
N[C@H]1CC[C@H](NC(=O)c2cc3cc(Br)ccc3nc2O)CC1 [compound 565, N-((1r,4r)-4-aminocyclohexyl)-6-bromo-2-hydroxyquinoline-3-carboxamide]	> 10

Other lines, results leading:

IC50 [µM]	Structure (SMILES)
> 10	Nc1nc(C(=O)N[C@H]2CC[C@H](N)CC2)c[nH]1 [compound 572, 2-amino-N-((1r,4r)-4-aminocyclohexyl)-1H-imidazole-4-carboxamide]
> 50	Cn1cnc(C(=O)N[C@H]2CC[C@H](N)CC2)n1 [compound 544, N-((1r,4r)-4-aminocyclohexyl)-1-methyl-1H-1,2,4-triazole-3-carboxamide]
> 50	N[C@H]1CC[C@H](C(=O)N2CCC(NC(=O)c3nnc[nH]3)CC2)CC1 [compound 555, N-(1-((1r,4r)-4-aminocyclohexane-1-carbonyl)piperidin-4-yl)-4H-1,2,4-triazole-3-carboxamide]
> 50	Cc1ncc(C(=O)N[C@H]2CC[C@H](N)CC2)[nH]1 [compound 522, N-((1r,4r)-4-aminocyclohexyl)-2-methyl-1H-imidazole-5-carboxamide]
3.49	N[C@H]1CC[C@H](NC(=O)c2cc3c(cn2)NC(=O)C3)CC1 [compound 559, N-((1r,4r)-4-aminocyclohexyl)-2-oxo-2,3-dihydro-1H-pyrrolo[2,3-c]pyridine-5-carboxamide]
> 10	CN(C(=O)c1ncn[nH]1)[C@H]1CC[C@H](N)CC1 [compound 561, N-((1r,4r)-4-aminocyclohexyl)-N-methyl-1H-1,2,4-triazole-5-carboxamide]

Same assay, conditions: read-out: SMYD3 Biochem IC50

Structure (SMILES)	IC50 [µM]
NCCC(=O)N[C@H]1CC[C@H](NC(=O)c2cc3cc(Cl)ccc3[nH]2)CC1 [compound 230, N-((1r,4r)-4-(3-aminopropanamido)cyclohexyl)-5-chloro-1H-indole-2-carboxamide]	37.5
CC(NC(=O)c1cccc(F)n1)C1CCN(C(=O)[C@H](C)N)CC1 (stereo partly drawn) [compound 265, N-(1-(1-(L-alanyl)piperidin-4-yl)ethyl)-6-fluoropicolinamide]	> 100
CC(NC(=O)c1cc2ccccc2[nH]1)C1CCN(C(=O)[C@H](C)N)CC1 (stereo partly drawn) [compound 232, N-(1-(1-(L-alanyl)piperidin-4-yl)ethyl)-1H-indole-2-carboxamide]	> 100
NCCC(=O)N[C@H]1CC[C@H](NC(=O)c2noc(C3CC3)n2)CC1 [compound 485, N-((1r,4r)-4-(3-aminopropanamido)cyclohexyl)-5-cyclopropyl-1,2,4-oxadiazole-3-carboxamide]	12.9
CC(NC(=O)c1cnccn1)C1CCN(C(=O)[C@H](C)N)CC1 (stereo partly drawn) [compound 205, N-(1-(1-(L-alanyl)piperidin-4-yl)ethyl)pyrazine-2-carboxamide]	> 100
Cc1cccc(Cn2nc(C(C)(C)C)cc2C(=O)N[C@H]2CC[C@H](N)CC2)c1 [compound 341, N-((1r,4r)-4-aminocyclohexyl)-3-(tert-butyl)-1-(3-methylbenzyl)-1H-pyrazole-5-carboxamide]	> 100
Cc1cc(C(=O)NC(C)C2CCN(C(=O)[C@H](C)N)CC2)ccn1 (stereo partly drawn) [compound 392, N-(1-(1-(L-alanyl)piperidin-4-yl)ethyl)-2-methylisonicotinamide]	> 100
NCCC(=O)N[C@H]1CC[C@H](NC(=O)Cc2c[nH]c3cccnc23)CC1 [compound 407, N-((1r,4r)-4-(2-(1H-pyrrolo[3,2-b]pyridin-3-yl)acetamido)cyclohexyl)-3-aminopropanamide]	> 100
NCCC(=O)N[C@H]1CC[C@H](NC(=O)Cc2cccc(C(F)(F)F)c2)CC1 [compound 477, 3-amino-N-((1r,4r)-4-(2-(3-(trifluoromethyl)phenyl)acetamido)cyclohexyl)propanamide]	22.8
CC(NC(=O)c1cn2ncccc2n1)C1CCN(C(=O)[C@H](C)N)CC1 (stereo partly drawn) [compound 445, N-(1-(1-(L-alanyl)piperidin-4-yl)ethyl)imidazo[1,2-b]pyridazine-2-carboxamide]	> 100
CC(NC(=O)c1ccnc(N)c1)C1CCN(C(=O)[C@H](C)N)CC1 (stereo partly drawn) [compound 187, N-(1-(1-(L-alanyl)piperidin-4-yl)ethyl)-2-aminoisonicotinamide]	> 100
NCCC(=O)N[C@H]1CC[C@H](NC(=O)c2ccnc(N)c2)CC1 [compound 321, 2-amino-N-((1r,4r)-4-(3-aminopropanamido)cyclohexyl)isonicotinamide]	16.6
N[C@H]1CC[C@H](NC(=O)Cc2cccc(C(F)(F)F)c2)CC1 [compound 457, N-((1r,4r)-4-aminocyclohexyl)-2-(3-(trifluoromethyl)phenyl)acetamide]	> 100

Other lines, results leading:

IC50 [µM]	Structure (SMILES)
> 100	N[C@H]1CC[C@H](NC(=O)C2=NNC(=O)CC2)CC1 [compound 424, N-((1r,4r)-4-aminocyclohexyl)-6-oxo-1,4,5,6-tetrahydropyridazine-3-carboxamide]
91.5	N[C@H]1CC[C@H](NC(=O)c2cc3cc(Cl)ccc3[nH]2)CC1 [compound 231, N-((1r,4r)-4-aminocyclohexyl)-5-chloro-1H-indole-2-carboxamide]
> 100	Nc1cccc(C(=O)N[C@H]2CC[C@H](N)CC2)n1 [compound 386, 6-amino-N-((1r,4r)-4-aminocyclohexyl)picolinamide]

Same assay, conditions: read-out: SMYD3 Biochem IC50 (μM)*

Structure (SMILES)	IC50 [µM]
CCc1ccc(C(=O)Nc2ccc(CN)cc2)s1 [compound 56, N-(4-(aminomethyl)phenyl)-5-ethylthiophene-2-carboxamide]	138
CC(NC(=O)c1ccc2oc(=O)ccc2c1)C1CCN(C(=O)[C@H](C)N)CC1 (stereo partly drawn) [compound 95, N-(1-(1-(L-alanyl)piperidin-4-yl)ethyl)-2-oxo-2H-chromene-6-carboxamide]	150

Second part, the compound after the results:

IC50 [µM]	Structure (SMILES)
31.3	CCc1cncc(C(=O)N[C@H]2CC[C@H](N)CC2)c1 [compound 22, N-((1r,4r)-4-aminocyclohexyl)-5-ethylnicotinamide]
125	CCc1ccc(C(=O)N[C@H]2CC[C@H](N)CC2)cc1 [compound 18, N-((1r,4r)-4-aminocyclohexyl)-4-ethylbenzamide]
16	N[C@H]1CC[C@H](NC(=O)c2ccc3c(c2)NC(=O)CO3)CC1 [compound 20, N-((1r,4r)-4-aminocyclohexyl)-3-oxo-3,4-dihydro-2H-benzo[b][1,4]oxazine-6-carboxamide]
86	N[C@H]1CC[C@H](NC(=O)c2cccc(CO)c2)CC1 [compound 26, N-((1r,4r)-4-aminocyclohexyl)-3-(hydroxymethyl)benzamide]
134	Cc1cc2[nH]c(C(=O)N[C@H]3CC[C@H](N)CC3)cc2o1 [compound 57, N-((1r,4r)-4-aminocyclohexyl)-2-methyl-4H-furo[3,2-b]pyrrole-5-carboxamide]
102	CCn1nc(C)cc1C(=O)N[C@H]1CC[C@H](N)CC1 [compound 27, N-((1r,4r)-4-aminocyclohexyl)-1-ethyl-3-methyl-1H-pyrazole-5-carboxamide]
